Experimental data as given in US12247029B2, “Heterocyclic compounds as class II phosphoinositide 3-kinase inhibitors” (Forschungsverbund Berlin e.V., priority 2018, dated 2025).
Entries after “also recorded” stand apart in the source; their conditions may differ. Where two headings read alike, the source gives them in different places.

Legend:
PI3KC2α Δ1-298 = PI3KC2α Δ1-298 (Homo sapiens (Human), UniProt O00443); assay: ADP-Glo kinase assay with purified PI3KC2α Δ1-298; assay type: biochemical
Summary of the method: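 Purified human PI3KC2α Δ1-298 (10 ng/μl) with liver PI (200 μM) and ATP (40 μM), 20 min kinase reaction; ADP formed read by ADP-Glo luminescence after 40 min ATP depletion. Screening compounds at 10 μM; reactions lacking PI served as negative control.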

[1] = tested on: commercially available lipid kinases and the related mTOR protein kinase; assay: In vitro kinase profiling at fixed 10 μM (lipid kinase panel, mTOR, general kinase panel); assay type: biochemical; conditions: 10 μM compound; listed as C2a_Inh3
Method: FIG. 7. In vitro kinase activity in presence of 10 μM compounds. (A-C) The specificity of initial screening hits and C2a_inh1-3 was validated by incubation with available lipid kinases. […] (D) Selectivity may be modulated by modifying the R11 substituent of Formula 1. […]
We firstly analyzed the specificity of C2a_inh1 (dihydropteridinone derived compound) and other initial screening hits (eg. quinolone derived compound) in vitro. […]

[2] = tested on: eGFP-clathrin expressing Cos7 cells; assay: CCP dynamics by TIRF microscopy; assay type: cell-based; conditions: treatment for 1 h, vs DMSO
Method: (§1) FIG. 8. Inhibition of PI3KC2α in living cells upon treatment with C2a_inh1-3. (A) PI3KC2α inhibition impairs CCP dynamics analyzed by TIRF microscope. eGFP-clathrin expressing Cos7 cells were treated by DMSO or C2a_Inh3 for 1 h and imaged by TIRF microscope. […] (B) C2a_Inh3 treatment of eGFP-SNX9 AS OE HeLa cells. […] Scale bar, 10 μm or 2 μm (inset). (C) Quantification of the results depicted in B, indicating the percentage of cells containing membrane tubules (N=3, statistical analysis with one-way ANOVA, **** is for p<0.0001).
To test if the validated compounds are cell membrane permeable and, thus, can be used as medicaments and in cell-based experiments, the inventors analyzed clathrin-mediated endocytosis of transferrin in the presence of PI3KC2α inhibitors or DMSO as a solvent control. […] Further, the inventors monitored the CCP dynamics in cells with PI3KC2α inhibitor (C2a_Inh3) treatment for 1 h.

[3] = tested on: HeLa cells overexpressing SNX9 AS; assay: SNX9 AS membrane recruitment / tubulation; assay type: cell-based; conditions: eGFP-SNX9 AS OE HeLa cells, vs DMSO
Method: as §1
SNX9 is a main effector protein of PI3KC2α dependent PI(3,4)P2 production. […] HeLa cells overexpressing SNX9 AS were treated with C2a_inh_3 or DMSO as a control.

PI3KC2α Δ1-298, sequence (O00443 299-1686): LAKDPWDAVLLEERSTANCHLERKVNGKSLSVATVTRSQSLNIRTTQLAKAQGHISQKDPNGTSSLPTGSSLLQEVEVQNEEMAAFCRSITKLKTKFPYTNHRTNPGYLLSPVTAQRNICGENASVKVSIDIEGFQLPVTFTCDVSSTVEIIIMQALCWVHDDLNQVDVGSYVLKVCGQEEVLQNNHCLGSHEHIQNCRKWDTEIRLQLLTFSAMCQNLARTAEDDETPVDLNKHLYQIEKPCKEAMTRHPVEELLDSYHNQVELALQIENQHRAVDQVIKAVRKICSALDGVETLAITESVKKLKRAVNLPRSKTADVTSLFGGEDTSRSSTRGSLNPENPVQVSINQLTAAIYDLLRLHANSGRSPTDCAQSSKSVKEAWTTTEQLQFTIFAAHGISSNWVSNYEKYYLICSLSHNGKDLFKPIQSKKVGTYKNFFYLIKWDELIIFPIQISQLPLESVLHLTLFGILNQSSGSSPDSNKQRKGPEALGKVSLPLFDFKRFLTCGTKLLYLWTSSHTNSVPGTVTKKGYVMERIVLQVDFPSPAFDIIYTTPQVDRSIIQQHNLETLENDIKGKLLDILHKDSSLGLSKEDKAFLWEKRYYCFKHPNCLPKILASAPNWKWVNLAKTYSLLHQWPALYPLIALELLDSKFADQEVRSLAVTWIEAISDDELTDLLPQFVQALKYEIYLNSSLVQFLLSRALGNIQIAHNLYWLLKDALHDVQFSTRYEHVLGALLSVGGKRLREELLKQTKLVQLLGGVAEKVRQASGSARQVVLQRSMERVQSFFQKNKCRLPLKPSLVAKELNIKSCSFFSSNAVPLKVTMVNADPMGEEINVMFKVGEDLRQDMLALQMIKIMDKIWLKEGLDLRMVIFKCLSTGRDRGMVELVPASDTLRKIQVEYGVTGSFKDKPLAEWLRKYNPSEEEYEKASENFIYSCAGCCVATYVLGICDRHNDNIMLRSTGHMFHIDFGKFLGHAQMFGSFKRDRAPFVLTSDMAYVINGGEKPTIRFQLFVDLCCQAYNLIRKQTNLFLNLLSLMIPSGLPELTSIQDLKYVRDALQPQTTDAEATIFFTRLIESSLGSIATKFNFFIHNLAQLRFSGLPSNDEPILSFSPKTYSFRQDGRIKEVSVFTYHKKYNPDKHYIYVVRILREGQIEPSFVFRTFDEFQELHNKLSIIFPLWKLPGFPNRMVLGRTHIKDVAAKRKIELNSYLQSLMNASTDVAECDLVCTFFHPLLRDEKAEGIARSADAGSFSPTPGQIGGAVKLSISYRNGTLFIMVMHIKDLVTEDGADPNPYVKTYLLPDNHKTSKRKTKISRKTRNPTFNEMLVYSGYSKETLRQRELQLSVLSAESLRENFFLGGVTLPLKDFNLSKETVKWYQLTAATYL

IC50 (PI3KC2α Δ1-298; listed as C2a_Inh3, read-out: IC50 for PI3KC2α inhibition): 100 nM
IC50 (PI3KC2α Δ1-298; read-out: IC50 (PI3KC2α; ADP-Glo™ assay)): 100 nM
Compound: O=C(CSc1nc2nccnc2c(=O)n1CCc1ccccc1)Nc1nccs1 [Example Compound 11, 2-((4-Oxo-3-phenethyl-3,4-dihydropteridin-2-yl)thio)-N-(thiazol-2-yl)acetamide]
specificity in kinase panel [1]: specifically inhibited class II PI3Ks; also recorded: relatively high off-targeting activity towards other class II kinase isoforms
CCP lifetime (CCP dynamics) ([2]; listed as C2a_Inh3): increased CCP-lifetimes
CCP lifetime (CCP dynamics) ([2]; listed as C2a_Inh_3): increase of lifetime
SNX9 AS recruitment to membrane / membrane tubules ([3]; listed as C2a_Inh3): reduced the recruitment of SNX9 to the membrane
SNX9 AS recruitment to membrane / membrane tubules ([3]; listed as C2a_inh_3): remained largely cytosolic
